Results as given in PubChem BioAssay (NCI).
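48-hour exposure; five concentrations; linearly interpolated endpoints. GI50 marks 50% less growth. TGI denotes the concentration required for complete inhibition of growth.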

How the values were obtained:
Test in all cases: growth of human tumour cells (NCI), 48 h
[1] = test system: 786-0 renal
[2] = test system: A498 renal
[3] = test system: A549 NSCLC
[4] = test system: ACHN renal
[5] = test system: BT-549 breast
[6] = test system: CAKI-1 renal
[7] = test system: CCRF-CEM leukemia
[8] = test system: COLO 205 colon
[9] = test system: DU-145 prostate
[10] = test system: EKVX NSCLC
[11] = test system: HCC-2998 colon
[12] = test system: HCT-116 colon
[13] = test system: HCT-15 colon
[14] = test system: HOP-62 NSCLC
[15] = test system: HOP-92 NSCLC
[16] = test system: HS 578T breast
[17] = test system: IGROV1 ovarian
[18] = test system: K-562 leukemia
[19] = test system: KM12 colon
[20] = test system: LOX IMVI melanoma
[21] = test system: M14 melanoma
[22] = test system: MALME-3M melanoma
[23] = test system: MCF7 breast
[24] = test system: MDA-MB-231 breast
[25] = test system: MDA-MB-435
[26] = test system: MOLT-4 leukemia
[27] = test system: NCI-H226 lung
[28] = test system: NCI-H23 lung
[29] = test system: NCI-H460 lung
[30] = test system: NCI-H522 lung
[31] = test system: NCI/ADR-RES ovarian
[32] = test system: OVCAR-3 ovarian
[33] = test system: OVCAR-4 ovarian
[34] = test system: OVCAR-5 ovarian
[35] = test system: OVCAR-8 ovarian
[36] = test system: PC-3 prostate
[37] = test system: RPMI-8226 leukemia
[38] = test system: RXF 393 renal
[39] = test system: SF-268 CNS
[40] = test system: SF-295 CNS
[41] = test system: SF-539 CNS
[42] = test system: SK-MEL-2 melanoma
[43] = test system: SK-MEL-5 melanoma
[44] = test system: SK-OV-3 ovarian
[45] = test system: SN12C renal
[46] = test system: SNB-19 CNS
[47] = test system: SR leukemia
[48] = test system: SW-620 colon
[49] = test system: TK-10 renal
[50] = test system: U251 CNS
[51] = test system: UACC-257 melanoma
[52] = test system: UACC-62 melanoma
[53] = test system: UO-31 renal
[54] = test system: HL-60(TB) leukemia
[55] = test system: HT29 colon
[56] = test system: SK-MEL-28 melanoma
[57] = test system: SNB-75 CNS

O=C(Cc1cc(O)ccc1O)NO
GI50 [1]: 18.9 µM
TGI [1]: 34.5 µM
GI50 [2]: > 100 µM
TGI [2]: > 100 µM
GI50 [3]: 89.4 µM
TGI [3]: > 100 µM
GI50 [4]: > 100 µM
TGI [4]: > 100 µM
GI50 [5]: 85.7 µM
TGI [5]: > 100 µM
GI50 [6]: 26.9 µM
TGI [6]: 81.9 µM
GI50 [7]: 22.3 µM
TGI [7]: 48.6 µM
GI50 [8]: 18.6 µM
TGI [8]: 36.3 µM
GI50 [9]: > 100 µM
TGI [9]: > 100 µM
GI50 [10]: > 100 µM
TGI [10]: > 100 µM
GI50 [11]: > 100 µM
TGI [11]: > 100 µM
GI50 [12]: 18 µM
TGI [12]: 32.4 µM
GI50 [13]: 74.6 µM
TGI [13]: > 100 µM
GI50 [14]: > 100 µM
TGI [14]: > 100 µM
GI50 [15]: 21.3 µM
TGI [15]: 59.6 µM
GI50 [16]: > 100 µM
TGI [16]: > 100 µM
GI50 [17]: > 100 µM
TGI [17]: > 100 µM
GI50 [18]: 21.2 µM
TGI [18]: 45.8 µM
GI50 [19]: > 100 µM
TGI [19]: > 100 µM
GI50 [20]: 28.5 µM
TGI [20]: 80.9 µM
GI50 [21]: > 100 µM
TGI [21]: > 100 µM
GI50 [22]: 29.1 µM
TGI [22]: > 100 µM
GI50 [23]: 16.5 µM
TGI [23]: 34.9 µM
GI50 [24]: 19.9 µM
TGI [24]: 47 µM
GI50 [25]: 15.4 µM
TGI [25]: 31.2 µM
GI50 [26]: 19.7 µM
TGI [26]: 41 µM
GI50 [27]: 70 µM
TGI [27]: > 100 µM
GI50 [28]: > 100 µM
TGI [28]: > 100 µM
GI50 [29]: 89.8 µM
TGI [29]: > 100 µM
GI50 [30]: 91.7 µM
TGI [30]: > 100 µM
GI50 [31]: > 100 µM
TGI [31]: > 100 µM
GI50 [32]: 16.9 µM
TGI [32]: 33.3 µM
GI50 [33]: > 100 µM
TGI [33]: > 100 µM
GI50 [34]: 18.7 µM
TGI [34]: 34.1 µM
GI50 [35]: > 100 µM
TGI [35]: > 100 µM
GI50 [36]: > 100 µM
TGI [36]: > 100 µM
GI50 [37]: 19 µM
TGI [37]: 40 µM
GI50 [38]: 71.7 µM
TGI [38]: > 100 µM
GI50 [39]: > 100 µM
TGI [39]: > 100 µM
GI50 [40]: 21.7 µM
TGI [40]: 47.9 µM
GI50 [41]: > 100 µM
TGI [41]: > 100 µM
GI50 [42]: > 100 µM
TGI [42]: > 100 µM
GI50 [43]: > 100 µM
TGI [43]: > 100 µM
GI50 [44]: > 100 µM
TGI [44]: > 100 µM
GI50 [45]: 18.2 µM
TGI [45]: 33.8 µM
GI50 [46]: 31.2 µM
TGI [46]: > 100 µM
GI50 [47]: 20.5 µM
TGI [47]: 52.6 µM
GI50 [48]: 25.1 µM
TGI [48]: 54.1 µM
GI50 [49]: 57.6 µM
TGI [49]: > 100 µM
GI50 [50]: 32.7 µM
TGI [50]: > 100 µM
GI50 [51]: 59.9 µM
TGI [51]: > 100 µM
GI50 [52]: 24.7 µM
TGI [52]: 63.3 µM
GI50 [53]: > 100 µM
TGI [53]: > 100 µM

Cc1c2c(n3c(nc4ccccc43)c1C#N)N(c1ccc(F)cc1)CC2
TGI [1]: > 100 µM
TGI [2]: > 100 µM
TGI [3]: > 100 µM
TGI [4]: > 100 µM
TGI [5]: > 100 µM
TGI [6]: > 100 µM
TGI [7]: > 100 µM
TGI [8]: > 100 µM
TGI [9]: > 100 µM
TGI [11]: > 100 µM
TGI [12]: > 100 µM
TGI [13]: > 100 µM
TGI [54]: > 100 µM
TGI [14]: > 100 µM
TGI [15]: > 100 µM
TGI [16]: > 100 µM
TGI [55]: > 100 µM
TGI [17]: > 100 µM
TGI [20]: > 100 µM
TGI [22]: > 100 µM
TGI [23]: > 100 µM
TGI [25]: > 100 µM
TGI [27]: > 100 µM
TGI [28]: > 100 µM
TGI [29]: > 100 µM
TGI [30]: > 100 µM
TGI [31]: > 100 µM
TGI [32]: > 100 µM
TGI [33]: > 100 µM
TGI [34]: > 100 µM
TGI [35]: > 100 µM
TGI [36]: > 100 µM
TGI [38]: > 100 µM
TGI [39]: > 100 µM
TGI [40]: > 100 µM
TGI [41]: > 100 µM
TGI [42]: > 100 µM
TGI [56]: > 100 µM
TGI [43]: > 100 µM
TGI [44]: > 100 µM
TGI [45]: > 100 µM
TGI [46]: > 100 µM
TGI [57]: > 100 µM
TGI [47]: > 100 µM
TGI [48]: > 100 µM
TGI [49]: > 100 µM
TGI [50]: > 100 µM
TGI [51]: > 100 µM
TGI [52]: > 100 µM
TGI [53]: > 100 µM
